# Paper PMC10879502, “Linking ATP and allosteric sites to achieve superadditive binding with bivalent EGFR kinase inhibitors” (Communications Chemistry, 2024)
# How the values were obtained:
# Assay in all cases: KINOMEscan
# Format in all cases: binding
# Conditions in all cases: 1 μM
# [1] = molecular target: PIK4CB (Homo sapiens, UniProt Q9UBF8)
# [2] = molecular target: T1, MKK7 (Homo sapiens, UniProt O14733)
# T1 construct: purchased Eurofins DiscoverX Corporation
# [3] = molecular target: FLT3 (Homo sapiens, UniProt P36888)
# [4] = molecular target: T2, TLK2 (Homo sapiens, UniProt Q86UE8)
# T2 construct: purchased Eurofins DiscoverX Corporation
# [5] = molecular target: T3, GRK1 (Homo sapiens, UniProt Q15835)
# T3 construct: purchased Eurofins DiscoverX Corporation
# [6] = molecular target: RET (Homo sapiens, UniProt P07949)
# [7] = molecular target: T4, NEK4 (Homo sapiens, UniProt P51957)
# T4 construct: purchased Eurofins DiscoverX Corporation
# [8] = molecular target: ZAP70 (Homo sapiens, UniProt P43403)
# [9] = molecular target: ACVR2B (Homo sapiens, UniProt Q13705)
# [10] = molecular target: EGFR(T790M) (Homo sapiens, UniProt P00533, T790M)
# [11] = molecular target: p38-beta (Homo sapiens, UniProt Q15759)
# p38-beta, sequence (Q15759 whole entry): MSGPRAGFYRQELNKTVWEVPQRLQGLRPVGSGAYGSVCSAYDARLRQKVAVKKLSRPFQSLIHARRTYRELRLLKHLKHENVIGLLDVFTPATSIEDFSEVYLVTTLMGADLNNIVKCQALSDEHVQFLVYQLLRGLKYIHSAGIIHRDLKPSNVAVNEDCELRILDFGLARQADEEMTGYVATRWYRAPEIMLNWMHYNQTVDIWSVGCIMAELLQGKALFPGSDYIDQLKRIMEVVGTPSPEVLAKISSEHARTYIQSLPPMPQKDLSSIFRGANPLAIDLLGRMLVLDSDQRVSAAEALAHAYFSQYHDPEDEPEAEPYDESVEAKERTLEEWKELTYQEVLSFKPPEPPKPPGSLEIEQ
# [12] = molecular target: T5, IGF1R (Homo sapiens, UniProt P08069)
# T5 construct: purchased Eurofins DiscoverX (KINOMEscan)
# [13] = molecular target: T6, DYRK1A (Homo sapiens, UniProt Q13627)
# T6 construct: purchased Eurofins DiscoverX Corporation
# [14] = molecular target: PKAC-alpha (Homo sapiens, UniProt P17612)
# [15] = molecular target: PIP5K1A (Homo sapiens, UniProt Q99755)
# [16] = molecular target: T7, ABL1(E255K)-phosphorylated (Homo sapiens, UniProt P00519, E255K)
# T7 construct: purchased Eurofins DiscoverX Corporation
# [17] = molecular target: PIP5K2B (Homo sapiens, UniProt P78356)
# PIP5K2B, sequence (P78356 whole entry): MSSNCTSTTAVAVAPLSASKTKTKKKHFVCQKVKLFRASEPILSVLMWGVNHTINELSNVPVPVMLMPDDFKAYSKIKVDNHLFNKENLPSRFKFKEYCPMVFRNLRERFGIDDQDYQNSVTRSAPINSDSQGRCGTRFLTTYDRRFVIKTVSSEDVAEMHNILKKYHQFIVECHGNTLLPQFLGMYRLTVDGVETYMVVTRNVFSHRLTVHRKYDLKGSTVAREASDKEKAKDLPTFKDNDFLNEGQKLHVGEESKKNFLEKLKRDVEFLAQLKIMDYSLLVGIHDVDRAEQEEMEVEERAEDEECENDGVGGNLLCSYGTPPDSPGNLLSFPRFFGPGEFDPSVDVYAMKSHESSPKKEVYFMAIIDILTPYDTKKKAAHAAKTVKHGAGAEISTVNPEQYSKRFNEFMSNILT
# [18] = molecular target: PLK2 (Homo sapiens, UniProt Q9NYY3)
# [19] = molecular target: ADCK4 (Homo sapiens, UniProt Q96D53)
# ADCK4, sequence (Q96D53 whole entry): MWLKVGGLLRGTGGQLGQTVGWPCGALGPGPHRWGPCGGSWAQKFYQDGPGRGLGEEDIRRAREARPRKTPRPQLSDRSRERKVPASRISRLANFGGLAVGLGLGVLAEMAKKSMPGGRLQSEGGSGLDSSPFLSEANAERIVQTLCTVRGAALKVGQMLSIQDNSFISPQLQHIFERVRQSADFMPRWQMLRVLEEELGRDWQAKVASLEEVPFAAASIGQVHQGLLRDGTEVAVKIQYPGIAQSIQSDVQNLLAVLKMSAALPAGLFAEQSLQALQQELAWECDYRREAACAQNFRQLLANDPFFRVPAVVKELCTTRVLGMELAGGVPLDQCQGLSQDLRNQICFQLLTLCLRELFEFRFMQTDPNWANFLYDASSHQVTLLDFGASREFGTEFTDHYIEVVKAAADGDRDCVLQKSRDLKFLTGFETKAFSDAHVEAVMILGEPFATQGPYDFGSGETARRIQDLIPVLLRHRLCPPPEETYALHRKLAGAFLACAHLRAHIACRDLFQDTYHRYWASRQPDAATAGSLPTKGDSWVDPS
# [20] = molecular target: FLT3(D835H) (Homo sapiens, UniProt P36888, D835H)
# [21] = molecular target: EGFR(L747-S752del+P753S) (Homo sapiens, UniProt P00533, DEL747-752/P753S)
# [22] = molecular target: T8, IRAK3 (Homo sapiens, UniProt Q9Y616)
# T8 construct: purchased Eurofins DiscoverX (KINOMEscan)
# [23] = molecular target: ACVR2A (Homo sapiens, UniProt P27037)
# [24] = molecular target: T9, ABL1(Q252H)-nonphosphorylated (Homo sapiens, UniProt P00519, Q252H)
# T9 construct: purchased Eurofins DiscoverX Corporation
# [25] = molecular target: T10, GSK3B (Homo sapiens, UniProt P49841)
# T10 construct: purchased Eurofins DiscoverX Corporation
# [26] = molecular target: T11, MUSK (Homo sapiens, UniProt O15146)
# T11 construct: purchased Eurofins DiscoverX Corporation
# [27] = molecular target: T12, TNK2 (Homo sapiens, UniProt Q07912)
# T12 construct: purchased Eurofins DiscoverX Corporation
# [28] = molecular target: T13, TRPM6 (Homo sapiens, UniProt Q9BX84)
# T13 construct: purchased Eurofins DiscoverX Corporation
# T13 sequence (Q9BX84 whole entry): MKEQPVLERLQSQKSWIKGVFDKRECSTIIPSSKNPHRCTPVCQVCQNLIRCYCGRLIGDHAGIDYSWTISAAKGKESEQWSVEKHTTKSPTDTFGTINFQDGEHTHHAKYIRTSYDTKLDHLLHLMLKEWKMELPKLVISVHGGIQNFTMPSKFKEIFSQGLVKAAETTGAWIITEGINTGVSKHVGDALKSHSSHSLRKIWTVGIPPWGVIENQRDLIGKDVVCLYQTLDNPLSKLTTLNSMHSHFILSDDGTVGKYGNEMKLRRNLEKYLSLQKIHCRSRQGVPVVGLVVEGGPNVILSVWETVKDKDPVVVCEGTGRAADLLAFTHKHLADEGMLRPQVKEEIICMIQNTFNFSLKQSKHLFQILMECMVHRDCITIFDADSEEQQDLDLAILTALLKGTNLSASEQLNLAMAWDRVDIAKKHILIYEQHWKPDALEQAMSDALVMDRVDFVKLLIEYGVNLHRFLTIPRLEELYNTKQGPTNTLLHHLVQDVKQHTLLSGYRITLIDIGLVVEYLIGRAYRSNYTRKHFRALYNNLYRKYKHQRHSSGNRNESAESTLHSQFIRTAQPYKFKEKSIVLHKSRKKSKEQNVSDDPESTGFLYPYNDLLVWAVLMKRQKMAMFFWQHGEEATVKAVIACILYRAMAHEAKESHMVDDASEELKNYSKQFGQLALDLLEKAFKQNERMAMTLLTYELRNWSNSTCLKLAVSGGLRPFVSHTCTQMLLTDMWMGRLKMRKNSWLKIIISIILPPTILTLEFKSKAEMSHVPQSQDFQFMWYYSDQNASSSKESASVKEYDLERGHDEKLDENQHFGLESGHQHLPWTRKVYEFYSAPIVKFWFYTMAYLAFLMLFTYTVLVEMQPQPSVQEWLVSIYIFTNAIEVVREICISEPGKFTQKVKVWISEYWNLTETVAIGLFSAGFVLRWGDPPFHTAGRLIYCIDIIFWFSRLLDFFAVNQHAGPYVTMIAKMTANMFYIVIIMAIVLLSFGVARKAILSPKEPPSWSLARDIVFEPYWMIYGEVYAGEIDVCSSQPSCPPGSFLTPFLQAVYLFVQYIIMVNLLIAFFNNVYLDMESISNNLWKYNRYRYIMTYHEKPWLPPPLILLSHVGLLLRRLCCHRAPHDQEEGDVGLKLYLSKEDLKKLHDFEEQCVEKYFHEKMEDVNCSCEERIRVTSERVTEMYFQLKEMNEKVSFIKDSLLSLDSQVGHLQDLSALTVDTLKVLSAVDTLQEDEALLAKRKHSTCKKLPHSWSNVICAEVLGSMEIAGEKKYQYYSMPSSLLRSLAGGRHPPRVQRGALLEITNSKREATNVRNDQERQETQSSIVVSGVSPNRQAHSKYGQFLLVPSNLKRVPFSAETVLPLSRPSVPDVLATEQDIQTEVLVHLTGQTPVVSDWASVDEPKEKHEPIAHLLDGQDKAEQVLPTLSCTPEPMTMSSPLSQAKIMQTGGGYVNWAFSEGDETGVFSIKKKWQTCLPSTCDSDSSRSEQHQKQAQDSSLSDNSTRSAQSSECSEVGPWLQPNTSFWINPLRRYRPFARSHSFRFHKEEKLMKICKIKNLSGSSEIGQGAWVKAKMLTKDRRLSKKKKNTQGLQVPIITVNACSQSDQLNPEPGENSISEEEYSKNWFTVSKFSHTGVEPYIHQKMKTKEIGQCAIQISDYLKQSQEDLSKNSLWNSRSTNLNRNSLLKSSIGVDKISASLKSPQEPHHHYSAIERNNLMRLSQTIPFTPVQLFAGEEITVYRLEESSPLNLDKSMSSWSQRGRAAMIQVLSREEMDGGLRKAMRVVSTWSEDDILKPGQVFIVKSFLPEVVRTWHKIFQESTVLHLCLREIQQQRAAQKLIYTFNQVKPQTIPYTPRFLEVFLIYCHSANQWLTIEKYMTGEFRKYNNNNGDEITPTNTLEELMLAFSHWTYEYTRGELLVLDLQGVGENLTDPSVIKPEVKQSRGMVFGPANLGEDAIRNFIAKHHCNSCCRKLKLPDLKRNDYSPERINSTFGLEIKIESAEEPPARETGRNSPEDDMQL
# [29] = molecular target: PFTK1 (Homo sapiens, UniProt O94921)
# [30] = molecular target: VEGFR2 (Homo sapiens, UniProt P35968)
# [31] = molecular target: T14, TIE2 (Homo sapiens, UniProt Q02763)
# T14 construct: purchased Eurofins DiscoverX Corporation
# [32] = molecular target: T15, CAMK1G (Homo sapiens, UniProt Q96NX5)
# T15 construct: purchased Eurofins DiscoverX Corporation (KINOMEscan)
# [33] = molecular target: PFTAIRE2 (Homo sapiens, UniProt Q96Q40)
# [34] = molecular target: RSK1(Kin.Dom.1-N-terminal) (Homo sapiens, UniProt Q15418)
# [35] = molecular target: T16, NEK10 (Homo sapiens, UniProt Q6ZWH5)
# T16 construct: purchased Eurofins DiscoverX Corporation
# T16 sequence (Q6ZWH5 whole entry): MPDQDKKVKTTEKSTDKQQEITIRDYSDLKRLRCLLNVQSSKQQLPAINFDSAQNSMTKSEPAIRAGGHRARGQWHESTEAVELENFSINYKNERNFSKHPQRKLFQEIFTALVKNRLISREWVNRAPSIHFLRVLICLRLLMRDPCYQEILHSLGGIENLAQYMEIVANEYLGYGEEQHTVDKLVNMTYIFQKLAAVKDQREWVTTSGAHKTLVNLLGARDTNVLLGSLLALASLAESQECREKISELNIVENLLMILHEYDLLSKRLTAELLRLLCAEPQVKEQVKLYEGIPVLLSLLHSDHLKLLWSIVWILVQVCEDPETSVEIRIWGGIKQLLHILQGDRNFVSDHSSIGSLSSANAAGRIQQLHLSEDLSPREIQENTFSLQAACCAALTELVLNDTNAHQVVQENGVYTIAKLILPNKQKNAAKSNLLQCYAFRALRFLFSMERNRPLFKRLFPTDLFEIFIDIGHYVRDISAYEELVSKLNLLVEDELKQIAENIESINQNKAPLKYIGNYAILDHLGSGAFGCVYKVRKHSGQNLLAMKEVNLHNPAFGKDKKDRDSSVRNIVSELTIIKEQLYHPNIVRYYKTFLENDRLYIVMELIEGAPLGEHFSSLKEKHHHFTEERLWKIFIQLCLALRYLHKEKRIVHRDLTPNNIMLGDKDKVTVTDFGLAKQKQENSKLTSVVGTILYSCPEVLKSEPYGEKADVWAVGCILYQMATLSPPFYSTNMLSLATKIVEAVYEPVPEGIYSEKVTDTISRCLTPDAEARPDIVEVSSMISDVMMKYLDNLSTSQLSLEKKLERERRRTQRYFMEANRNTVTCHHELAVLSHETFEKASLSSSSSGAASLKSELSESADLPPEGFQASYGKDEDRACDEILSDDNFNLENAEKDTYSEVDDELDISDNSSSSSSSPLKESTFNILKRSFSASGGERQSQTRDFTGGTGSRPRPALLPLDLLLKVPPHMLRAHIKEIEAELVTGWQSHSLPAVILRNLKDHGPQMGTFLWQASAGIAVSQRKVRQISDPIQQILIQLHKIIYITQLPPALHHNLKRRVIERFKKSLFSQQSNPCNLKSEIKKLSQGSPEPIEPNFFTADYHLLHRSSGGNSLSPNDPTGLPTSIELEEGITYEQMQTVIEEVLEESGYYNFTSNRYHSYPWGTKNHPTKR
# [36] = molecular target: PAK2 (Homo sapiens, UniProt Q13177)
# PAK2, sequence (Q13177 whole entry): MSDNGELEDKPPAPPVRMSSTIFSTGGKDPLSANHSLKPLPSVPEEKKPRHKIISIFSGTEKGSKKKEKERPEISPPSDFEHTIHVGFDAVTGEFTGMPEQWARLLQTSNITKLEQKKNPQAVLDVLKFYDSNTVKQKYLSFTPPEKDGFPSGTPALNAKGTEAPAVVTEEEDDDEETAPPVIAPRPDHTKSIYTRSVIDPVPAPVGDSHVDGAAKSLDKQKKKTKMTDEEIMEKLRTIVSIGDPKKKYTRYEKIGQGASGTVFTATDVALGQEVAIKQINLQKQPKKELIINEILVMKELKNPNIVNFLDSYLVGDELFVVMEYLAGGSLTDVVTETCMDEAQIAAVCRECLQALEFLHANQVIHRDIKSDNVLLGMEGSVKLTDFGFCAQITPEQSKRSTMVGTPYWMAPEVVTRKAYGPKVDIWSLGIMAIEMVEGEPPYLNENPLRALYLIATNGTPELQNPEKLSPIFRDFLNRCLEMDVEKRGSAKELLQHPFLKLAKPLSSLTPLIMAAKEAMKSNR
# [37] = molecular target: T17, DAPK2 (Homo sapiens, UniProt Q9UIK4)
# T17 construct: purchased Eurofins DiscoverX Corporation
# [38] = molecular target: EGFR(L747-E749del+A750P) (Homo sapiens, UniProt P00533, A750P/DEL747-749)
# [39] = molecular target: BLK (Homo sapiens, UniProt P51451)
# [40] = molecular target: T18, MAP3K4 (Homo sapiens, UniProt Q9Y6R4)
# T18 construct: purchased Eurofins DiscoverX Corporation
# [41] = molecular target: T19, INSRR (Homo sapiens, UniProt P14616)
# T19 construct: purchased Eurofins DiscoverX (KINOMEscan)
# [42] = molecular target: T20, CSNK1G2 (Homo sapiens, UniProt P78368)
# T20 construct: purchased Eurofins DiscoverX Corporation
smiles,measurement,setting,value
C=CC(=O)Nc1ccc(OC)c(Nc2cc(-c3[nH]c(CC)nc3-c3cccc(NC(=O)c4cccc5c4NC(=O)c4ccccc4N5)c3)ccn2)c1 [Compound 4],POC,[1],93% of control
same,POC,[2],31% of control
same,POC,[3],100% of control
same,POC,[4],87% of control
same,POC,[5],94% of control
same,POC,[6],99% of control
same,POC,[7],100% of control
same,POC,[8],97% of control
same,POC,[9],72% of control
same,POC,[10],12% of control
same,POC,[11],59% of control
same,POC,[12],90% of control
same,POC,[13],100% of control
same,POC,[14],100% of control
same,POC,[15],75% of control
same,POC,[16],65% of control
same,POC,[17],100% of control
same,POC,[18],100% of control
same,POC,[19],85% of control
same,POC,[20],92% of control
same,POC,[21],16% of control
same,POC,[22],39% of control
same,POC,[23],77% of control
same,POC,[24],100% of control
same,POC,[25],100% of control
same,POC,[26],100% of control
same,POC,[27],3.8% of control
same,POC,[28],99% of control
same,POC,[29],90% of control
same,POC,[30],100% of control
same,POC,[31],71% of control
same,POC,[32],100% of control
same,POC,[33],84% of control
same,POC,[34],4.7% of control
same,POC,[35],86% of control
same,POC,[36],100% of control
same,POC,[37],100% of control
same,POC,[38],8% of control
same,POC,[39],1.7% of control
same,POC,[40],100% of control
same,POC,[41],87% of control
same,POC,[42],91% of control
